According to patent US6737383B1, “Herbicidal oxadiazolidines” (priority 1999, dated 2004):

Assays:
[1] = test system: rape; assay: Test B pre/postemergence rape; format: in vivo, Brassica napus
How it was run: (§1)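 Test chemicals in a non-phytotoxic solvent mixture with surfactant were sprayed preemergence onto planted seeds and postemergence onto plants 2 to 18 cm tall (1- to 4-leaf stage). After twelve to sixteen days in a greenhouse, injury was visually rated against untreated controls from 0 (no effect) to 10 (complete control).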

[2] = test system: smallflower flatsedge; assay: Test B flood test smallflower flatsedge; format: in vivo, Cyperus difformis; settings: for Plant response rating, S. Flatsedge (0 to 10 scale, 0 is no effect, 10 is complete control) / S. Flatsedge plant response rating (0 to 10 scale, 0 is no effect, 10 is complete control): visual evaluation after twelve to sixteen days; for S. Flatsedge plant response rating (0 to 10 scale, 0 is no effect, 10 is complete control): under heading Pre-emergence
How it was run: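 Plants were grown to the 2-leaf stage before treatment with test chemical, then held in a greenhouse for twelve to sixteen days. Injury was visually rated against untreated controls on a 0–10 scale, where 0 is no effect and 10 is complete control.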

[3] = test system: soybean; assay: Test B pre/postemergence soybean; format: in vivo, Glycine max
How it was run: as §1

[4] = test system: corn; assay: Test B pre/postemergence corn; format: in vivo, Zea mays
How it was run: as §1

[5] = Postemergence, Rate 125 g/ha, scale 0 to 10, 0 is no effect, 10 is complete control
[6] = Postemergence, Rate 250 g/ha, scale 0 to 10, 0 is no effect, 10 is complete control
[7] = Preemergence, Rate 62 g/ha, scale 0 to 10 (0 no effect, 10 complete control)
[8] = Preemergence, Rate 250 g/ha, scale of 0 to 10 where 0 is no effect and 10 is complete control
[9] = Preemergence, Rate 500 g/ha, scale of 0 to 10 where 0 is no effect and 10 is complete control
[10] = Rate 62 g/ha, Postemergence, scale of 0 to 10 where 0 is no effect and 10 is complete control
[11] = Rate 500 g/ha, Postemergence, scale 0 to 10, 0 no effect, 10 complete control
[12] = Rate 62 g/ha, flood test species, Pre-emergence
[13] = Rate 125 g/ha, flood test species
[14] = Rate 250 g/ha, Pre-emergence, flood-test species, scale 0 to 10, 0 is no effect, 10 is complete control
[15] = Rate 500 g/ha, Pre-emergence, flood test species, scale 0 to 10 (0 no effect, 10 complete control)
[16] = Preemergence, Rate 125 g/ha, scale of 0 to 10 where 0 is no effect and 10 is complete control
[17] = Preemergence, Rate 250 g/ha, scale 0 to 10, 0 is no effect, 10 is complete control
[18] = Preemergence, Rate 500 g/ha, scale 0 to 10, 0 is no effect, 10 is complete control
[19] = Postemergence, Rate 500 g/ha, scale of 0 to 10 where 0 is no effect and 10 is complete control
[20] = Postemergence section (flood test species), Rate 500 g/ha, scale of 0 to 10 where 0 is no effect and 10 is complete control
[21] = Postemergence, Rate 250 g/ha, scale 0 to 10
[22] = Rate 62 g/ha, Postemergence, scale 0 to 10 (0 no effect, 10 complete control)
[23] = Rate 125 g/ha, Postemergence, scale 0 to 10, 0 is no effect, 10 is complete control

| Structure (SMILES) | Plant response rating, Rape [1, 6] | Plant response rating, Rape [1, 7] | Rape plant response rating [1, 10] | Plant response rating, Soybean [3, 6] | Plant response rating, Soybean [3, 7] | Plant response rating, Corn [4, 5] | Plant response rating, Corn [4, 6] | Plant response rating, Corn [4, 7] | Corn plant response rating [4, 10] | Plant response rating, Rape [1, 16] | Rape plant response rating [1, 17] | Rape plant response rating [1, 18] | Soybean plant response rating [3, 19] | Plant response rating, Soybean [3, 16] | Soybean plant response rating [3, 17] | Soybean plant response rating [3, 18] | Corn plant response rating [4, 19] | Plant response rating, Corn [4, 16] | Corn plant response rating [4, 17] | Corn plant response rating [4, 18] | also measured |
| --- | --- | --- | --- | --- | --- | --- | --- | --- | --- | --- | --- | --- | --- | --- | --- | --- | --- | --- | --- | --- | --- |
| CC(C)N(C(=O)n1oc(=O)n(N2CCOCC2)c1=O)c1ccc(F)cc1 [Compound 385] | 0 | 0 | 0 | 2 | 0 | 0 | 0 | 0 | 0 | – | – | – | – | – | – | – | – | – | – | – | Plant response rating, Rape [1, 5]: 0; Rape plant response rating (0 to 10 scale) ([1]; Preemergence, Rate 125 g/ha): 0; Rape plant response rating [1, 8]: 0; Rape plant response rating [1, 9]: 4; Plant response rating, Rape [1, 11]: 0; Plant response rating, S. Flatsedge (0 to 10 scale, 0 is no effect, 10 is complete control) [2, 12]: 0; S. Flatsedge plant response rating (0 to 10 scale, 0 is no effect, 10 is complete control) [2, 13]: 0; S. Flatsedge plant response rating [2, 14]: 0; S. Flatsedge plant response rating [2, 15]: 0; Plant response rating, Soybean [3, 5]: 2; Soybean plant response rating (0 to 10 scale) ([3]; Preemergence, Rate 125 g/ha): 0; Soybean plant response rating [3, 8]: 0; Soybean plant response rating [3, 9]: 0; Soybean plant response rating [3, 10]: 2; Plant response rating, Soybean [3, 11]: 2; Corn plant response rating (0 to 10 scale) ([4]; Preemergence, Rate 125 g/ha): 0; Corn plant response rating [4, 8]: 0; Corn plant response rating [4, 9]: 0; Plant response rating, Corn [4, 11]: 0 |
| CC(C)N(C(=O)n1oc(=O)n(CC#N)c1=O)c1ccc(F)cc1 [Compound 395] | 0 | 0 | 0 | 1 | 0 | 0 | 0 | 0 | 0 | 0 | 0 | 0 | 1 | 0 | 0 | 0 | 0 | 0 | 0 | 0 | Plant response rating, S. Flatsedge (0 to 10 scale, 0 is no effect, 10 is complete control) [2, 12]: 0; S. Flatsedge plant response rating (0 to 10 scale, 0 is no effect, 10 is complete control) [2, 13]: 0; S. Flatsedge plant response rating [2, 14]: 0; S. Flatsedge plant response rating [2, 15]: 0; Soybean plant response rating [3, 10]: 0 |
| CC(C)N(C(=O)n1oc(=O)n(CC2(C)COC2)c1=O)c1ccccc1 [Compound 420] | 0 | 0 | – | 3 | 0 | 0 | 0 | 0 | 0 | 0 | 0 | 8 | 4 | 0 | 0 | 0 | 0 | 0 | 0 | 2 | Rape plant response rating [1, 19]: 0; S. Flatsedge plant response rating [2, 20]: 0; Plant response rating, S. Flatsedge ([2]; flood test species, listed under Postemergence, Rate 250 g/ha, scale 0 to 10, 0 is no effect, 10 is complete control): 0 |
| CC(C)N(C(=O)n1oc(=O)n(C(C)C#N)c1=O)c1ccccc1 (stereo not shown) [Compound 435] | – | 0 | – | – | 0 | – | – | 0 | – | 0 | 0 | 0 | 3 | 0 | 0 | 0 | 0 | 0 | 0 | 0 | Rape plant response rating [1, 21]: 0; Rape plant response rating [1, 19]: 0; Rape plant response rating [1, 22]: 0; Rape plant response rating [1, 23]: 0; S. Flatsedge plant response rating ([2]; Postemergence block (flood test species), Rate 250 g/ha, scale 0 to 10): 0; S. Flatsedge plant response rating [2, 20]: 0; S. Flatsedge plant response rating ([2]; Rate 62 g/ha, Postemergence (flood test), scale 0 to 10, 0 no effect, 10 complete control): 0; S. Flatsedge plant response rating ([2]; Rate 125 g/ha, Postemergence section (flood test species), scale 0 to 10, 0 is no effect, 10 is complete control): 0; Soybean plant response rating [3, 21]: 1; Soybean plant response rating [3, 22]: 0; Soybean plant response rating [3, 23]: 1; Corn plant response rating [4, 21]: 0; Corn plant response rating [4, 22]: 0; Corn plant response rating [4, 23]: 0 |
